Experimental data as given in patent US11981630B1, “Abietane type diterpene compound, preparation method and application thereof” (Hangzhou Normal University, priority 2022, dated 2024).
Values joined by “and” are separate entries in the source; they are usually repeats but may differ in a detail not shown here. Equal values may be shown once. Read-outs that look alike come from different tables or passages of the source.

Tests used:
[1] = tested on: human promyelocytic leukemia cell HL-60; test: in vitro tumor cell proliferation inhibition assay (MTT), HL-60; type: cell-based; details: for absorbance at 570 nm, Average: average of 3 wells; for absorbance at 570 nm, Average / Survival / absorbance at 570 nm (single well, S/N 1-3): parallel tests I-III; for absorbance at 570 nm (single well, S/N 1-3): MTT
Procedure: (§1) The abietane type diterpene compound Leucosceptrum A prepared in Embodiment 2 is tested for its anti-tumor ability, with a process as follows: in vitro tumor cell proliferation inhibition assay: exponential phase tumor cells are taken and the cell suspension concentration is adjusted (50,000-100,000 cells/mL), then the cell suspension is inoculated in 96-well plate with 100 microlitres (u L) per well (M L/well), followed by drug administration (100 μL/well) 24 h after inoculation; a blank control group, a cell control group and 6 drug groups with concentrations (3.12, 6.25, 12.5, 25, 50, 100 micromoles per litre (u mol/L)) are set up respectively, and the drug in the cell control group is cisplatin; after continuous cultivation for 72 […]

[2] = tested on: human lung cancer cell A549; test: in vitro tumor cell proliferation inhibition assay (MTT), A549; type: cell-based; details: for absorbance at 570 nm, Average: average of 3 wells; for absorbance at 570 nm, Average / Survival / absorbance at 570 nm (single well, S/N 1-3): parallel tests I-III; for absorbance at 570 nm (single well, S/N 1-3): MTT
Procedure: as §1

mouse sarcoma cells = details: MTT assay, reported in CN101633660A; cited from earlier work
mouse liver cancer cells = details: MTT assay, reported in CN101633660A; cited from earlier work
[3] = HL-60, 72 h, mean ± spread of parallel tests, unit inferred, read-out: IC50 obtained according to the above data (three parallel tests)
[4] = HL-60, 72 h, one value per parallel test I, II, III, unit not given (concentrations in μmol/L), read-out: IC50 according to Graphpad Prism 6.0 (single parallel test)
[5] = A549, 72 h, mean ± spread of parallel tests, unit inferred, read-out: IC50 according to the above data (three parallel tests)
[6] = A549, 72 h, one value per parallel test I, II, III, unit not given (concentrations in μmol/L), read-out: IC50 according to Graphpad Prism 6.0 (single parallel test)

Row | Compound | absorbance at 570 nm, Average ([1]; HL-60, 3.12 μmol/L, 72 h) | Survival ([1]; HL-60, 3.12 μmol/L, 72 h) | absorbance at 570 nm, Average ([1]; HL-60, 6.25 μmol/L, 72 h) | Survival ([1]; HL-60, 6.25 μmol/L, 72 h) | absorbance at 570 nm, Average ([1]; HL-60, 12.5 μmol/L, 72 h) | Survival ([1]; HL-60, 12.5 μmol/L, 72 h) | Survival ([1]; HL-60, 25 μmol/L, 72 h) | absorbance at 570 nm, Average ([1]; HL-60, 50 μmol/L, 72 h) | Survival ([1]; HL-60, 50 μmol/L, 72 h) | absorbance at 570 nm, Average ([1]; HL-60, 100 μmol/L, 72 h) | Survival ([1]; HL-60, 100 μmol/L, 72 h) | IC50 [1, 3] [µM] | IC50 [1, 4] | absorbance at 570 nm, Average ([2]; A549, 3.12 μmol/L, 72 h) | Survival ([2]; A549, 3.12 μmol/L, 72 h) | absorbance at 570 nm, Average ([2]; A549, 6.25 μmol/L, 72 h) | Survival ([2]; A549, 6.25 μmol/L, 72 h) | absorbance at 570 nm, Average ([2]; A549, 12.5 μmol/L, 72 h) | Survival ([2]; A549, 12.5 μmol/L, 72 h) | Survival ([2]; A549, 25 μmol/L, 72 h) | further results
1 | N.N.[Cl][Pt][Cl] [Cisplatin, cisplatin, reference compound] | 0.6123 and 0.433 and 0.4877 | 96.57% and 87.56% and 92.66% | 0.416 and 0.3023 and 0.4303 | 65.51% and 61.20% and 81.78% | 0.312 and 0.2347 and 0.231 | 49.05% and 47.55% and 43.96% | 43.57% and 22.80% and 31.06% | 0.11 and 0.076 and 0.0597 | 17.09% and 15.53% and 11.45% | 0.0213 and 0.0253 and 0.017 | 3.06% and 5.31% and 3.35% | 12.7 ± 1.87 | 14.4 µM and 10.7 µM and 13.2 µM | 0.666 and 0.6207 and 0.678 | 97.75% and 98.46% and 96.86% | 0.442 and 0.4673 and 0.4623 | 64.82% and 74.09% and 66.03% | 0.2543 and 0.2593 and 0.265 | 37.24% and 41.02% and 37.88% | 35.18% and 37.36% and 35.35% | absorbance at 570 nm (single well, S/N 1-3) ([1]; HL-60, 12.5 μmol/L, 72 h): 0.346 and 0.244 and 0.185 and 0.299 and 0.22 and 0.197 and 0.201 and 0.295; absorbance at 570 nm, Average ([2]; A549, 50 μmol/L, 72 h): 0.2027 and 0.2047 and 0.2257; Survival ([2]; A549, 50 μmol/L, 72 h): 29.64% and 32.33% and 32.21%; absorbance at 570 nm, Average ([2]; A549, 100 μmol/L, 72 h): 0.1913 and 0.189 and 0.2023; Survival ([2]; A549, 100 μmol/L, 72 h): 27.98% and 29.84% and 28.87%; IC50 [2, 5]: 16 ± 1.69 µM; IC50 [2, 6]: 14.6 µM and 17.9 µM and 15.4 µM
2 | C=C(C)c1cc(O)c2c(c1O)C(=O)CC1C(C)(C)CCCC21C (stereo not drawn) [Leucosceptrum A, 11,14-dihydroxy-8,11,13,15-abietatetraen-7-one] | 0.4477 and 0.4213 and 0.3807 | 82.21% and 78.96% and 66.67% | 0.3683 and 0.3987 and 0.364 | 67.61% and 74.70% and 63.73% | 0.221 and 0.1817 and 0.281 | 40.49% and 33.94% and 49.09% | 16.13% and 10.64% and 11.79% | 0.052 and 0.0433 and 0.048 | 9.39% and 7.95% and 8.00% | 0.0303 and 0.032 and 0.039 | 5.40% and 5.82% and 6.41% | 9.06 ± 0.59 | 9.58 µM and 9.19 µM and 8.42 µM | 0.815 and 0.7807 and 0.813 | 98.11% and 95.42% and 95.31% | 0.7823 and 0.7553 and 0.7943 | 94.17% and 92.31% and 93.11% | 0.6333 and 0.6687 and 0.59 | 76.22% and 81.68% and 69.13% | 21.90% and 23.22% and 22.81% | absorbance at 570 nm, Average ([1]; HL-60, 25 μmol/L, 72 h): 0.0887 and 0.0577 and 0.069; absorbance at 570 nm (single well, S/N 1-3) ([1]; HL-60, 50 μmol/L, 72 h): 0.049 and 0.054 and 0.053 and 0.048 and 0.045 and 0.037 and 0.038; IC50 ([1]; HL-60 cells, 72 h, read-out: 72-hour IC50): 9.06 ± 0.59 µM; absorbance at 570 nm (single well, S/N 1-3) ([2]; A549, 6.25 μmol/L, 72 h): 0.828 and 0.791 and 0.728 and 0.711 and 0.786 and 0.769 and 0.822 and 0.77; absorbance at 570 nm, Average ([2]; A549, 25 μmol/L, 72 h): 0.1827 and 0.192 and 0.1953; absorbance at 570 nm (single well, S/N 1-3) ([2]; A549, 50 μmol/L, 72 h): 0.085 and 0.074 and 0.077 and 0.059 and 0.071 and 0.079 and 0.088; absorbance at 570 nm, Average ([2]; A549, 50 μmol/L, 72 h): 0.0813 and 0.07 and 0.0793; Survival ([2]; A549, 50 μmol/L, 72 h): 9.68% and 8.76% and 9.19%; absorbance at 570 nm (single well, S/N 1-3) ([2]; A549, 100 μmol/L, 72 h): 0.078 and 0.067 and 0.085 and 0.073 and 0.066 and 0.058; absorbance at 570 nm, Average ([2]; A549, 100 μmol/L, 72 h): 0.0767 and 0.0657 and 0.069; Survival ([2]; A549, 100 μmol/L, 72 h): 9.12% and 7.73% and 7.98%; IC50 [2, 5]: 17.5 ± 0.88 µM; IC50 [2, 6]: 17.6 µM and 18.4 µM and 16.6 µM; IC50 ([2]; A-549 cells, 72 h, read-out: 72-hour IC50): 17.5 ± 0.88 µM
3 | lushanrubescensin D |  |  |  |  |  |  |  |  |  |  |  |  |  |  |  |  |  |  |  |  | inhibitory effect on mouse sarcoma cells (mouse sarcoma cells): significant inhibitory effect; inhibitory effect on mouse liver cancer cells (mouse liver cancer cells): significant inhibitory effect
